# Test results from patent US9687490B2, “Triazine derivatives for the treatment of conditions associated with nicotinamide adenine dinucleotide phosphate oxidase” (GLUCOX BIOTECH AB, priority 2012, dated 2017).
# Several values for one entry are separate records, joined by “and”; a condition that tells them apart may be missing. Identical values can stand only once.
# Test system: stroke induced mice
# Test: Stroke animal model: transient middle cerebral artery occlusion (tMCAO), infarct size by TTC staining
# Type: in vivo
# Details: individual animals, 3.2 mg/kg i.p. at 2 h and 12 h, 1 h occlusion, 23 h reperfusion, C57Bl6 mice
# Procedure: Mice (10-12 wk), wild type C57BI6, 6 animals, were used:
# Test (n=3) stroke induced mouse treated i.p. with inventive compound M4 (N^2-(3,4-dimethylphenyl)-6-((4-(3-methoxyphenyl)piperazin-1-yl)methyl)-1,3,5-triazine-2,4-diamine).
# M4 preparation for intra peritoneal i.p. administration: 3.5 mg of M4 were first dissolved in 1 ml of DMSO. After the substance was totally dissolved, 5 ml of 20% Cremophor ELP in PBS (phosphate buffered saline solution) was added. Thereafter an additional 4 ml of PBS was added. The 20% Cremophor ELP solution was prepared by dissolving 10.5 g of Cremophor in 50 ml of PBS.
# Injection volume of M4: The dose was 3.2 mg/kg, calculated for each animal at each event of administration (2 h and 12 h).
# • 1. Transient middle cerebral artery occlusion (tMCAO) by blocking with a filament for 1 h. • 2. Reperfusion after 1 h by removing filament • 3. Injection of M4 by i.p. after 2 h and repeated injection i.p. after 12 h • 4. Sacrifice the animal after 24 h and infarct size is determined by triphenyl tetrazolium chloride (TTC) staining—Thus the procedure of middle cerebral artery occlusion (MCAO); 1 h occlusion and 23 h reperfusion. • 5. […]
# Mice were killed 24 hours after tMCAO. […] The occurrence of Intra Cerebral Hemorrhage (ICH) was macroscopically assessed on whole brains and again after the 2-mm-thick coronal brain slices were cut (see above) before TTC staining. […]
compound,measurement,value
"COc1cccc(N2CCN(Cc3nc(N)nc(Nc4ccc(C)c(C)c4)n3)CC2)c1 [M4, N^2-(3,4-dimethylphenyl)-6-((4-(3-methoxyphenyl)piperazin-1-yl)methyl)-1,3,5-triazine-2,4-diamine]",Infarct volume,73 mm^3 and 145 mm^3 and 134 mm^3
